These results are taken from article PMC8092340 (Oncotarget, 2021).

The nature of data set [1]: Cytotoxicity in the absence of DSB ligands (CT), Hoechst cell count. Format: cell-based, human. To be noted: human, EJ-DR U2OS cells; no DSB ligands; Table 1; read-out: Cytotoxicity IC50.
Data set [2] concerns the target T1, CYP2D6 (Homo sapiens, UniProt P10635).
T1 construct: tissue Eurofins Scientific; host or cells: human liver microsomes
In words: Cytochrome P450 inhibition assay in human liver microsomes, CYP2D6. Format: in vitro ADME. The following applies: human liver microsomes. The method, then:
CYP inhibition assays were performed by Eurofins Scientific. Test compounds were incubated with human liver microsomes, followed by compound detection using high performance liquid chromatography with tandem mass spectrometry (HPLC-MS/MS).

The nature of data set [3]: Microsomal half-life study. The following applies: mouse, mouse liver microsomes; read-out: mouse liver microsome half-life. Format: in vitro ADME.
A short description of data set [4]: In vivo pharmacokinetic study, plasma. The procedure: (§1) These measurements were used to calculate various pharmacokinetic parameters critical to bioavailability including time to reach maximum concentration (tmax), maximum concentration achieved (Cmax), and half-life (t1/2) (Figure 5C, 5D, Supplementary Table 1).
(§2) Compound concentrations were measured at these time-points using Liquid Chromatography with tandem mass spectrometry (LC-MS-MS). Pharmacokinetic studies were performed by orally dosing test compounds at 30 mg/kg dissolved in 50% PEG400 and 50% water in female athymic nude mice. Plasma and brain tissue concentration were measured using mass spectrometry (MS).

Data set [5] is described as follows: In vivo pharmacokinetic study, brain tissue. The following applies: female, athymic nude, mouse, brain, po, 30 mg/kg. The method, then: as §1, §2
For data set [6] the following is noted: cited from earlier work.
The test system of data set [7] is HR. In words: EJ-DR 384-well imaging assay, HR (GFP) readout. To be noted: Homo sapiens, read-out: HR IC50.
Data set [8] deals with alt-NHEJ. In words: EJ-DR 384-well imaging assay, alt-NHEJ (RFP) readout. The following applies: for IC50: Homo sapiens.
Data set [9] has as its system EJ-DR U2OS cells. In words: Cytotoxicity in the absence of DSB ligands (CT), Hoechst cell count. Format: cell-based, human. The following applies: Homo sapiens, U2OS; Supplementary Table 2, mean ± SEM of four technical replicates.
Data set [10] relates to alt-NHEJ. The following applies: ratio; Supplementary Table 2.
[11] abbreviates: oral 30 mg/kg, female athymic nude mice.
[12] abbreviates: recurrent GBM patients, mibefradil with hypofractionated RT.

Molecules are shown by their SMILES. Entries after “also recorded” stand apart in the source; their conditions may differ. Read-outs that look alike come from different tables or passages of the source.

T1 sequence (P10635 whole entry): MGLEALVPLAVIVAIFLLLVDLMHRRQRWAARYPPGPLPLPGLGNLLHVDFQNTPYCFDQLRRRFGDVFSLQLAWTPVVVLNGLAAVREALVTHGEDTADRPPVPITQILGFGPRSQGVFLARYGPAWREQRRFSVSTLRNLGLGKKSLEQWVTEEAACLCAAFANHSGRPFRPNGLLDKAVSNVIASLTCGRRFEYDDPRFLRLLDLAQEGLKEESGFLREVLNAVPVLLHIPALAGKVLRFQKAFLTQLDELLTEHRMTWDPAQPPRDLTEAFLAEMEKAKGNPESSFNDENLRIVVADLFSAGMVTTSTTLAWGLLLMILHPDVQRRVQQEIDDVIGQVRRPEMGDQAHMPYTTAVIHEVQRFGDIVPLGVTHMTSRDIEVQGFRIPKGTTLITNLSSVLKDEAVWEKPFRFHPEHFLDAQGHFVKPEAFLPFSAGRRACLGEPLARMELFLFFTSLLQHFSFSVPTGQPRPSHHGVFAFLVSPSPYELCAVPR

For orientation: IC50 means the concentration that gives 50% inhibition. A word on the half-life: it is the time needed for the level to fall by half in the phase considered. For orientation: Cmax means the maximum level reached in the sampled fluid or tissue. Consider `COCC(=O)O[C@]1(CCN(C)CCCc2nc3ccccc3[nH]2)CCc2cc(F)ccc2[C@@H]1C(C)C` [Mibefradil, mibefradil], for which, in data set [1], the IC50 at 96 h worked out at 10.5 µM. Moreover, the IC50 in [2] is 0.6 µM; in data set [7], greater than 60 µM; in data set [8] (U2OS, read-out: alt-NHEJ IC50) it was roughly 4 µM; in [8] (read-out: nc-EJ IC50), 3.8 µM. The half-life was 0.25 h in [3]; 2.6 h in data set [4] (female, athymic nude, mouse, plasma, po, 30 mg/kg); roughly 8 h in [5]. Further, in data set [4] (female, athymic nude, mouse, plasma, po, 30 mg/kg, Maximum concentration (Cmax), oral 30 mg/kg, female athymic nude mice, YU252222 given as methyl ester prodrug), the Cmax is 1090 ng/mL. For the same compound, in data set [4] (setting [11]), the “% AUC Extrapolation” value is recorded as 0.4%. For the same compound, the “AUC(0-x)/Dose” value in [4] (setting [11]) worked out at 161 ng·h/mL/mg/kg. Moreover, the Cmax/Dose in data set [4] (setting [11]) is 36.3 ng/mL/mg/kg. For the same compound, the “Time at which Cmax was observed (tmax)” value in data set [4] (setting [11]) worked out at 1.0 h. The “patients showing QT prolongation” value in data set [6] (mibefradil phase I trial, ref manuscript under preparation, 12) is reported as “five out of 19”. In addition, the “QT interval elongation, dose-limiting toxicity” value in data set [6] (setting [12]) was 28%. The “sinus bradycardia, dose-limiting toxicity” value in data set [6] (setting [12]) was 28%. Also, in data set [8] (EJ-DR U2OS cells), the “effect on alt-NHEJ and HR in the EJ-DR assay” value is recorded as “selective inhibition of alt-NHEJ over HR without significant cellular cytotoxicity; also recorded: selective inhibition of alt-NHEJ over HR”.
For the compound `Cn1ncc(Cl)c1-c1cc(C(=O)N[C@H](CN)Cc2cccc(F)c2)sc1Cl` [Afuresertib], the IC50 was 14.2 ± 2.32 µM in data set [9], 4.53 ± 5.75 µM in [7] and 0.61 ± 0.46 µM in data set [8] (read-out: alt-NHEJ IC50). Besides, the “Selectivity Index (HR IC50/alt-NHEJ IC50)” value in [10] was found to be 7.43.
